In patent US20160346392A1, “PULSE PHOTODYNAMIC TREATMENT OF SKIN CONDITIONS” (GALDERMA RESEARCH & DEVELOPMENT, priority 2013, published 2016):
“Also recorded” adds a separate entry of the source. Like-named read-outs stand apart in the source and are kept apart here.

Columns and labels:
acne [1] = conditions: 20% ALA acid applied to back for 3 hours, 150 J/cm2 broad band light; cited from earlier work
[2] = Method A investigation of efficacy and inflammation with 30 min pulse exposure PDT; type: in vivo
Method: (§1) The formation of PPIX after 3 hours is seen in FIG. 8, and the relation to inflammation is seen in FIG. 9. […] The results are illustrated in Column 3 in FIGS. 4, 5, 6, and 7. […] Pain level is not changed.

PpIX fluorescence = assay: Metvix pulse time investigation (Method B) on healthy volunteers: PpIX fluorescence; type: in vivo, human; conditions: short (30 min) pulse vs conventional 3-hour exposure; Table 1 and FIG. 8
Method: as §1
Twenty-four healthy male volunteers of Scandinavian ancestry were included in the study (mean age 30 years, range 20-51). A treatment area was selected on the inside of both forearms of the volunteer. Each treatment area was divided into four minor treatment fields of the size 2×5 cm with at least 3 cm between each field using a prefabricated flexible template. In order to imitate skin lesions all fields were tape stripped 10 times with occlusive dressing before treatment (Tegaderm™ Roll, 3M, Glostrup, Denmark). […]
All fields were covered with light-impermeable, occlusive dressing. […] During and after illumination pain was recorded. […]
5-MAL-induced PpIX fluorescence was depicted non-invasively using a fluorescence camera (Medeikonos AB, Gothenburg, Sweden). The amount of PpIX fluorescence was calculated from the photographs by the program MatLab® (MatLab®, MathWorks, Natic, US). The amount of fluorescence was measured before tape stripping and cream application (baseline) and before and after illumination.
The photo bleaching is then the difference in PpIX fluorescence (AU) calculated from the pre and post illumination images.

acne [3] = conditions: cream 16% wt. applied to face for 3 hours, non-coherent red light, repeated 2 weeks later; cited from earlier work

| SMILES | efficacy in treatment of acne (acne [1]) | side effects of treatment (acne [1]) | inflammation (erythema) ([2]; 30 min pulse exposure vs conventional 180 min exposure, FIGS. 6, 7) | pain level ([2]; 30 min pulse exposure vs conventional exposure, FIG. 4) | cure rate / efficacy ([2]; 30 min pulse exposure vs conventional exposure, FIG. 5) | PPIX concentration, pulse exposure versus conventional 3-hour exposure (PpIX fluorescence) | efficacy in treatment of acne (acne [3]) | side effects of treatment (acne [3]) |
| --- | --- | --- | --- | --- | --- | --- | --- | --- |
| NCC(=O)CCC(=O)O [ALA, 5-amino-4-oxo-pentanoic acid] | effective for the treatment of acne | erythema, hyperpigmentation and exfoliation were often seen after PDT treatment |  |  |  |  |  |  |
| COC(=O)CCC(=O)CN [5-MAL, 5-ALA methyl ester] |  |  | less inflammation | not changed | unchanged efficacy; also recorded: as efficient | clearly lower than for the conventional 3 hour exposure | effective in the treatment of acne | caused pain and induced severe inflammation |
